Several values for one entry are separate records, joined by “and”; a condition that tells them apart may be missing. Equal values may be shown once. Values belong to the molecule of their own block, whether it stands above or below them.
Tests used:
[1] = tested on: HD model flies (elav-GAL4 UAS-htt128Q); assay: Assay of locomotor activity (climbing speed) using the transgenic Drosophila HD model; assay type: in vivo; set-up: Early Speed Effect Size, Summary / Late Speed Effect Size, Summary / Early Speed Effect Size / Late Speed Effect Size / Early Speed Adj Value / Late Speed Adj Value / Early Speed Effect Size, combined campaigns / Late Speed Effect Size, combined campaigns: unit not given here; details: for Early Speed Effect Size, combined campaigns / Early Speed Percent TSA, combined campaigns / Late Speed Effect Size, combined campaigns / Late Speed Percent TSA, combined campaigns: drawing 84, drawing 89
Experimental: Female “activator” or “driver” flies were engineered to contain the neuronal specific drivers elav-GAL4 or nirvana-GAL4 in a heat shock-hid Y (phs-hidY or HS-hid+ on Y chomosome) background (Starz-Gaiano et al., 2001). The hid gene is a pro-apoptotic gene, which is expressed in this line by a heat inducible promoter. These flies can be heat shocked in bottles twice over 2 days for 2 hours to kill male larvae and thereby produce massive numbers of elav-GAL4 or nirvana-GAL4 virgin females.
For the mass production of males (either UAS-htt128Q[F27B]/UAS-htt128Q[F27B], the disease transgenes were moved into lines that contain an attached X-chromosome with the same phs-hid element (X^XPhs-hidY) used above. In this scheme the hid gene is present only in female flies and therefore is used to produce large numbers of male flies by heat shock. The massive collection of virgin female elav-GAL4 flies are crossed with the massive collection of males that contain the silent disease-transgene. Their progeny, the F1 generation, are the “assay flies” (e.g., elav-GAL4UAS-htt128Q[F27B]). These assay flies are robotically distributed into drugged assay vials.
The HD Drosophila model express exons 1 to 4 of the human huntingtin gene with 128Q repeats in exon 1. The construct was cloned into the Drosophila transformation vector, pUAST. These were then crossed to GAL4 driver lines that direct expression either to the eye (GMR-GAL4 promoter) or to neurons (elav-GAL4 promoter). […] Progressive degeneration of the photoreceptors was observed after several days of adult life. The properties of the HD128Q flies were consistent with those reported by others for two other strains in which exon-1 containing expanded repeats was expressed in the eye (Jackson et al., 1998; Steffan et al., 2001—US20040142859). To test the effects on motor function of the HD mutation, HD128Q lines were examined in which the transgene was expressed in all neurons. Motor function was assayed by tapping flies in a vial to the bottom and measuring the number of flies that are able to climb to a specified height within a specific length of time. When tapped to the bottom of a vial, wild-type flies rapidly climb to the top, where most of them remain. […] The decline in motor performance was progressive, leading to early death. […] The HD128Q model thus has a functional deficit that in its phenotypic and neuropathological characteristics appears to be related to that seen in the human disease. Moreover, as the deficit is quantifiable and reproducible, it is suitable for automated high-throughput screening.
Standard environmental conditions were followed to establish that different metrics detect differences between disease and control flies. A comparison of compound-treated HD flies and untreated HD flies was also included. The positive control compound tested was the Histone Deacetylase (HDAC) inhibitor Trichostatin-A (TSA).
In an assay run (typically corresponding to one day of an entire multi-day assay) the following process was followed. Each tube was dropped onto a surface, causing the flies to fall to the bottom of the tube and be subjected to impact shock stimulation. Their immediate negative geotaxis response to that event was thereafter captured in a 7.5 second movie. For each tube, this step was repeated five times, giving a total of five repeat videos per tube and run. The raw data for each video were analyzed and trajectories following the movements of individual flies in a tube were generated. The method for analyzing fly trajectories is described in published U.S. Patent Application 2004/0076318A1, which is hereby incorporated by reference in its entirety. The trajectories consisted of a list of x- and y-coordinates mapping out the positions of all the flies in the video, as well as measurements of size, orientation, length and width of the flies, with one list entry for every frame from when the fly started moving in one frame until it stopped in another. […]

[2] = tested on: KA-induced lesion in C57B1/6N mice; details: intra-striatal KA, Cosi et al., 2004; cited from earlier work
[3] = food conc 100, days 8 to 10, vs DMSO carrier, single campaigns
[4] = food conc 200, campaign drawing 91, day range not given, late by column position
[5] = conc 100, days 1 to 7, campaigns drawing 83
[6] = conc 100, days 8 to 10, campaigns drawing 83
[7] = conc 300, days 1 to 7, campaigns drawing 80, drawing 83, drawing 85, drawing 88
[8] = conc 300, days 8 to 10, campaigns drawing 80, drawing 83, drawing 85, drawing 88
[9] = food conc 100 (unit not printed; b38: μM), days 1 to 7, single campaigns
[10] = food conc 100, days 8 to 10, single campaigns
[11] = conc 100, days 1 to 7, campaigns drawing 80, drawing 83, drawing 88
[12] = conc 100, days 8 to 10, campaigns drawing 80, drawing 83, drawing 88

Structure (SMILES): Fc1ccc(C(c2ccccc2)(c2ccc(F)cc2)n2ccnc2)cc1
Early Speed Effect Size ([1]; food conc 50 (unit not printed; b38: μM), days 1 to 7, vs DMSO carrier, single campaigns): 0.31
Early Speed Percent TSA ([1]; food conc 50, days 1 to 7, effect size as percentage of positive control TSA, single campaigns): 16.8%
Late Speed Percent TSA ([1]; food conc 50, days 8 to 10, effect size as percentage of TSA, single campaigns): 12.5%
Late Speed Effect Size ([1]; food conc 50, days 8 to 10, vs DMSO carrier, single campaigns): 0.33
Early Speed Percent TSA ([1]; food conc 100, days 1 to 7, effect size as percentage of TSA, single campaigns): 56.8%
Early Speed Effect Size ([1]; food conc 100, days 1 to 7, vs DMSO carrier, single campaigns): 1.04
Late Speed Percent TSA ([1]; food conc 100, days 8 to 10, effect size as percentage of TSA, single campaigns): 49.9%
Late Speed Effect Size [1, 3]: 1.32
Early Speed Effect Size ([1]; food conc 200 (unit not given), campaign drawing 91, day range not given, early by column position): 1.23
Early Speed Percent TSA ([1]; food conc 200, campaign drawing 91, day range not given, early by column position): 67.2%
Late Speed Effect Size [1, 4]: 0.8
Late Speed Percent TSA [1, 4]: 30.2%

Structure (SMILES): FC(F)(F)c1cccc(C(c2ccccc2)(c2ccccc2)n2ccnc2)c1 [1-(3-(TRIFLUOROMETHYL)TRITYL)IMIDAZOLE, 1-(3-(trifluoromethyl)trityl)imidazole]
Early Speed Effect Size, combined campaigns [1, 5]: −0.159
Early Speed Percent TSA, combined campaigns [1, 5]: −4.3%
Late Speed Effect Size, combined campaigns [1, 6]: 0.344
Late Speed Percent TSA, combined campaigns [1, 6]: 7.6%
Early Speed Effect Size, combined campaigns [1, 7]: 1.003
Early Speed Percent TSA, combined campaigns [1, 7]: 45.6%
Late Speed Effect Size, combined campaigns [1, 8]: 1.798
Late Speed Percent TSA, combined campaigns [1, 8]: 68.2%
Early Speed Adj Value [1, 9]: 10.37 and 10.38 and 10.47
Late Speed Adj Value [1, 10]: 5.094 and 5.776 and 5.811
Early Speed Adj Value ([1]; food conc 300 (unit not given), days 1 to 7, single campaigns): 11.11 and 10.33 (2×) and 10.9 and 11.1 and 11.02
Late Speed Adj Value ([1]; food conc 300, days 8 to 10, single campaigns): 7.096 and 5.024 and 5.921 and 7.137 and 6.976 and 6.601
Late Speed Effect Size ([1]; food conc 300, days 8 to 10, vs DMSO carrier, single campaigns): 2.88 and 1.62 and 1.96

Structure (SMILES): Cl.FC(F)(F)c1cccc(C(c2ccccc2)(c2ccccc2)n2ccnc2)c1 [1-(3-(trifluoromethyl)trityl)imidazole hydrochloride]
Effect in Drosophila model of HD ([1]; vs carrier controls, metrics early speed (days 1-7) and late speed (days 8-10)): had therapeutic effect

Structure (SMILES): c1ccc(C(c2ccccc2)(c2ccccc2)n2ccnc2)cc1 [1-triphenylmethyl imidazole]
Early Speed Effect Size, combined campaigns [1, 11]: 0.186
Early Speed Percent TSA, combined campaigns [1, 11]: 9.6%
Late Speed Effect Size, combined campaigns [1, 12]: 0.179
Late Speed Percent TSA, combined campaigns [1, 12]: 6.9%
Early Speed Adj Value [1, 9]: 10.62 and 9.998 and 10.71 and 11.18 and 10.51 and 10.31
Early Speed Adj Value ([1]; food conc 100 (unit not printed; b38: μM), days 1 to 7, single campaigns, listed as 1-(triphenylmethyl)imidazole): 10.62 and 10.71
Late Speed Adj Value [1, 10]: 5.547 and 5.811 and 4.932 and 5.407 and 5.092 and 5.877
Late Speed Adj Value ([1]; food conc 100, days 8 to 10, single campaigns, listed as 1-(triphenylmethyl)imidazole): 5.81 and 5.41
Late Speed Effect Size [1, 3]: 0.86 and 0.62

Structure (SMILES): NC(=O)c1ccccc1 [Benzamide]
KA-induced decreases in striatal levels of NAD+ and ATP [2]: partially prevented
KA-induced lesions and astrogliosis [2]: partially prevented

melting point: 205 °C
Structure (SMILES): Clc1ccccc1C(c1ccccc1)(c1ccccc1)N1CCOCC1 [Example 1(f), 4-[(2-Chlorophenyl)-diphenylmethyl]-morpholine]

melting point: 158 to 160 °C
Structure (SMILES): FC(F)(F)c1cccc(C(c2ccccc2)(c2ccccc2)N2CCOCC2)c1 [Example 1(g), 4-[(3-Trifluoromethylphenyl)-diphenylmethyl]-morpholine]
